According to the kinase profiling compilation of Christmann-Franck et al. (2016):

Key:
Test in all cases: KINOMEscan competition binding
ABL2 (human) = ABL2 (human) (UniProt P42684); conditions: compound 1.0 µM
ACVR1 (human) = ACVR1 (human) (UniProt Q04771); conditions: compound 1.0 µM
AURKA (human) = AURKA (human) (UniProt O14965); conditions: compound 1.0 µM
CDC42BPG (human) = CDC42BPG (human) (UniProt Q6DT37); conditions: for kinase still bound, per cent of control: compound 1.0 µM
CDK16 (human) = CDK16 (human) (UniProt Q00536); conditions: compound 1.0 µM
CDK17 (human) = CDK17 (human) (UniProt Q00537); conditions: compound 1.0 µM
CDK9 (human) = CDK9 (human) (UniProt P50750); conditions: compound 1.0 µM
CLK1 (human) = CLK1 (human) (UniProt P49759); conditions: compound 1.0 µM
CLK3 (human) = CLK3 (human) (UniProt P49761); conditions: compound 1.0 µM
CSNK1E (human) = CSNK1E (human) (UniProt P49674); conditions: compound 1.0 µM
[1] = tested on: EGFR (human), P00533 [746-750 del]; conditions: compound 1.0 µM
[2] = tested on: EIF2AK4 KD2 (human), Q9P2K8 [S808G]; conditions: compound 1.0 µM
EPHB6 (human) = EPHB6 (human) (UniProt O15197); conditions: compound 1.0 µM
FLT1 (human) = FLT1 (human) (UniProt P17948); conditions: compound 1.0 µM
IKBKE (human) = IKBKE (human) (UniProt Q14164); conditions: compound 1.0 µM
IRAK3 (human) = IRAK3 (human) (UniProt Q9Y616); conditions: compound 1.0 µM
[3] = biological target: JAK1 JH1 catalytic (human) (UniProt P23458); conditions: compound 1.0 µM
LATS2 (human) = LATS2 (human) (UniProt Q9NRM7); conditions: compound 1.0 µM
MAP2K6 (human) = MAP2K6 (human) (UniProt P52564); conditions: compound 1.0 µM
MAP3K11 (human) = MAP3K11 (human) (UniProt Q16584); conditions: compound 1.0 µM
MAP4K5 (human) = MAP4K5 (human) (UniProt Q9Y4K4); conditions: compound 1.0 µM
MAPK13 (human) = MAPK13 (human) (UniProt O15264); conditions: compound 1.0 µM
MERTK (human) = MERTK (human) (UniProt Q12866); conditions: compound 1.0 µM
MST1R (human) = MST1R (human) (UniProt Q04912); conditions: compound 1.0 µM
MYLK4 (human) = MYLK4 (human) (UniProt Q86YV6); conditions: for kinase still bound, per cent of control: compound 1.0 µM
MYO3B (human) = MYO3B (human) (UniProt Q8WXR4); conditions: compound 1.0 µM
NEK6 (human) = NEK6 (human) (UniProt Q9HC98); conditions: compound 1.0 µM
NEK7 (human) = NEK7 (human) (UniProt Q8TDX7); conditions: compound 1.0 µM
NEK9 (human) = NEK9 (human) (UniProt Q8TD19); conditions: compound 1.0 µM
PAK4 (human) = PAK4 (human) (UniProt O96013); conditions: compound 1.0 µM
PDGFRB (human) = PDGFRB (human) (UniProt P09619); conditions: compound 1.0 µM
PDPK1 (human) = PDPK1 (human) (UniProt O15530); conditions: compound 1.0 µM
[4] = tested on: PIK3CA (human), P42336 [H1047Y]; conditions: compound 1.0 µM
PIP5K1C (human) = PIP5K1C (human) (UniProt O60331); conditions: compound 1.0 µM
PLK2 (human) = PLK2 (human) (UniProt Q9NYY3); conditions: compound 1.0 µM
PTK2B (human) = PTK2B (human) (UniProt Q14289); conditions: compound 1.0 µM
RPS6KA1 KD1 (human) = RPS6KA1 KD1 (human) (UniProt Q15418); conditions: compound 1.0 µM
SIK2 (human) = SIK2 (human) (UniProt Q9H0K1); conditions: compound 1.0 µM
STK38L (human) = STK38L (human) (UniProt Q9Y2H1); conditions: compound 1.0 µM
STK4 (human) = STK4 (human) (UniProt Q13043); conditions: compound 1.0 µM
TGFBR1 (human) = TGFBR1 (human) (UniProt P36897); conditions: compound 1.0 µM
ULK3 (human) = ULK3 (human) (UniProt Q6PHR2); conditions: compound 1.0 µM
Chain of ULK3 (human) (Q6PHR2 whole entry, looked up): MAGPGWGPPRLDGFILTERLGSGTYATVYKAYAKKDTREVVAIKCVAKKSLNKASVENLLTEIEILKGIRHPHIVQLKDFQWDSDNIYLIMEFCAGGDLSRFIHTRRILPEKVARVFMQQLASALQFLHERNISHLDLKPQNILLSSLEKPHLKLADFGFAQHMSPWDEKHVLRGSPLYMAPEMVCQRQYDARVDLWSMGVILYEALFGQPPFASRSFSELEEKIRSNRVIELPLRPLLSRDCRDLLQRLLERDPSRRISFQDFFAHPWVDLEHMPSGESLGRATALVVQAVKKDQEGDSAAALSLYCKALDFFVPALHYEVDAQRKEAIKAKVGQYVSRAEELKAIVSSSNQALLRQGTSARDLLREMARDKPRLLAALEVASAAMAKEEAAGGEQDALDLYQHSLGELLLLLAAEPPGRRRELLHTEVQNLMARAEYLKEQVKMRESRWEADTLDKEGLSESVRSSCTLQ

Chain of EPHB6 (human) (O15197 whole entry, looked up): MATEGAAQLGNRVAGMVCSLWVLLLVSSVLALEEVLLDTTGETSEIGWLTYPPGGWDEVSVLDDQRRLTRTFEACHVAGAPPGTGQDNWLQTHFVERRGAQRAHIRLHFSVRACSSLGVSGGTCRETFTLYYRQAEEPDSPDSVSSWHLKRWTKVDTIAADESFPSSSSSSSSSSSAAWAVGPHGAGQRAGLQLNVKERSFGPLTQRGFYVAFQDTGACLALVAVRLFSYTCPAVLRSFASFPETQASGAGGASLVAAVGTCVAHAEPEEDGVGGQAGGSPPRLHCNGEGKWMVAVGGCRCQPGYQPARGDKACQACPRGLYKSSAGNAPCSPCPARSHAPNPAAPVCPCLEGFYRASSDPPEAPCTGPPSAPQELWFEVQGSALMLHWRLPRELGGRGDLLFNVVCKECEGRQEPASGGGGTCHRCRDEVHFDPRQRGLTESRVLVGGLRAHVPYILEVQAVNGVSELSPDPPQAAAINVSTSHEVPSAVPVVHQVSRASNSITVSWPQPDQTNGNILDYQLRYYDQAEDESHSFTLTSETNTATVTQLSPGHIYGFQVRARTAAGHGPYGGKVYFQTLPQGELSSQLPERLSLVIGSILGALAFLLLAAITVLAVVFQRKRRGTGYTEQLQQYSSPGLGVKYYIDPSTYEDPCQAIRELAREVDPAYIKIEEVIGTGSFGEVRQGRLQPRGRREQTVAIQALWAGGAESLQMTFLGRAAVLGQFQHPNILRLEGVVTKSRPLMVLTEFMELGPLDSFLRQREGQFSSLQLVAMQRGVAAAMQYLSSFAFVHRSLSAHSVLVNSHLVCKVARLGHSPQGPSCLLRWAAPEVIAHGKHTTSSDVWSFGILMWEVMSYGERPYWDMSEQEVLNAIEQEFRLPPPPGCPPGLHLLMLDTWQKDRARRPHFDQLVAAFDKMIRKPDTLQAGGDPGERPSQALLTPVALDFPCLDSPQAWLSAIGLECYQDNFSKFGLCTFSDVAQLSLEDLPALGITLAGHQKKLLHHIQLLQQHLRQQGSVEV
Chain of AURKA (human) (O14965 whole entry, looked up): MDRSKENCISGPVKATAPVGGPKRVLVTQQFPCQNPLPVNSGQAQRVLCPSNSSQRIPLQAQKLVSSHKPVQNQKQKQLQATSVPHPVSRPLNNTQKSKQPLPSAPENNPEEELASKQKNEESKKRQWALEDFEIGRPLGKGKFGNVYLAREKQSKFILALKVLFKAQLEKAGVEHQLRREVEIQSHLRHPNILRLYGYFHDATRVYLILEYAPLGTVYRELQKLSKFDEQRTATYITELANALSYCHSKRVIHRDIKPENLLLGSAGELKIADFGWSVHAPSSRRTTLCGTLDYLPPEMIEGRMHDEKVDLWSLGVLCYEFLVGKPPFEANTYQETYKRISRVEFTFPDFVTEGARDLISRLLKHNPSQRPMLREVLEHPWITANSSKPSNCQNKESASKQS
Chain of CDK17 (human) (Q00537 whole entry, looked up): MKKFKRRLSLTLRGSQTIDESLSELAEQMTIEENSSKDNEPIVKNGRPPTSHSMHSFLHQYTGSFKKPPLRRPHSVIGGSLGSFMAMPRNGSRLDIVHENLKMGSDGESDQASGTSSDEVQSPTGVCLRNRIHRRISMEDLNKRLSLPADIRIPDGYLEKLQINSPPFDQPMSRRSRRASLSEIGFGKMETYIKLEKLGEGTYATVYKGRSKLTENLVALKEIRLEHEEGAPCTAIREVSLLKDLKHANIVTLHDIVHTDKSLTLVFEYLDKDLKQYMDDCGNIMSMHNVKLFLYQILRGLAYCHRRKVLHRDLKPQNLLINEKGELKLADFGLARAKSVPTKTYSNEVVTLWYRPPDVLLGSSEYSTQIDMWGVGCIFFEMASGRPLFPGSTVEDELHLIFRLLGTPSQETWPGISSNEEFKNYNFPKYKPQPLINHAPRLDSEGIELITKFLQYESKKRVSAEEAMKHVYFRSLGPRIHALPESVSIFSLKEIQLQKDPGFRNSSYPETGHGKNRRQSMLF
Chain of LATS2 (human) (Q9NRM7 whole entry, looked up): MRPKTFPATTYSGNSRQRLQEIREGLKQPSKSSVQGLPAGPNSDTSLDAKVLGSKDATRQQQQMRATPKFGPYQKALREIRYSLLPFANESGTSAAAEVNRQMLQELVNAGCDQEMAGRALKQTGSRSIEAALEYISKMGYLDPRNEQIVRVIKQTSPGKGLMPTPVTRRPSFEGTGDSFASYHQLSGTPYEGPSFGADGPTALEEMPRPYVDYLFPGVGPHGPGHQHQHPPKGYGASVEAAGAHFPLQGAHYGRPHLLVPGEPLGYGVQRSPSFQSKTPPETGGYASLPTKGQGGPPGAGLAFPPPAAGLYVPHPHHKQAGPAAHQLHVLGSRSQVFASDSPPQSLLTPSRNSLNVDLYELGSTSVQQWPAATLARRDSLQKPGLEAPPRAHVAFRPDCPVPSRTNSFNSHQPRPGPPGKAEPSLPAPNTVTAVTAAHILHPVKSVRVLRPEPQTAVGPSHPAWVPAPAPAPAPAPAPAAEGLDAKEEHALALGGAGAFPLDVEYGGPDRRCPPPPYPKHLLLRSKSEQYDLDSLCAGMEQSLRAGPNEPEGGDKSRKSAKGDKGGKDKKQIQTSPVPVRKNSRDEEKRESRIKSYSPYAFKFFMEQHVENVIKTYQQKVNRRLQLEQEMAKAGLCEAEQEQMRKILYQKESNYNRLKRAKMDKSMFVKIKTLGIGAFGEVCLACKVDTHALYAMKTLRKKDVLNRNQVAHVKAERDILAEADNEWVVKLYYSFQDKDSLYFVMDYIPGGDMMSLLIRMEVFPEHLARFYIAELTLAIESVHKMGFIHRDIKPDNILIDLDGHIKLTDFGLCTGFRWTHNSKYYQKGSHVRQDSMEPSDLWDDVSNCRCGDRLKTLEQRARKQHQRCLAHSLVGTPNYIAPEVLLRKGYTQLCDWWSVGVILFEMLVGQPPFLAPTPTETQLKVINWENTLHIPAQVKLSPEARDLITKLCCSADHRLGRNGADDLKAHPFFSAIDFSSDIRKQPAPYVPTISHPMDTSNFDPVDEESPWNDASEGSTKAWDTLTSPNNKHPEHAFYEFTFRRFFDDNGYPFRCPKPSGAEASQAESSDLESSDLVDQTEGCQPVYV
Chain of MST1R (human) (Q04912 whole entry, looked up): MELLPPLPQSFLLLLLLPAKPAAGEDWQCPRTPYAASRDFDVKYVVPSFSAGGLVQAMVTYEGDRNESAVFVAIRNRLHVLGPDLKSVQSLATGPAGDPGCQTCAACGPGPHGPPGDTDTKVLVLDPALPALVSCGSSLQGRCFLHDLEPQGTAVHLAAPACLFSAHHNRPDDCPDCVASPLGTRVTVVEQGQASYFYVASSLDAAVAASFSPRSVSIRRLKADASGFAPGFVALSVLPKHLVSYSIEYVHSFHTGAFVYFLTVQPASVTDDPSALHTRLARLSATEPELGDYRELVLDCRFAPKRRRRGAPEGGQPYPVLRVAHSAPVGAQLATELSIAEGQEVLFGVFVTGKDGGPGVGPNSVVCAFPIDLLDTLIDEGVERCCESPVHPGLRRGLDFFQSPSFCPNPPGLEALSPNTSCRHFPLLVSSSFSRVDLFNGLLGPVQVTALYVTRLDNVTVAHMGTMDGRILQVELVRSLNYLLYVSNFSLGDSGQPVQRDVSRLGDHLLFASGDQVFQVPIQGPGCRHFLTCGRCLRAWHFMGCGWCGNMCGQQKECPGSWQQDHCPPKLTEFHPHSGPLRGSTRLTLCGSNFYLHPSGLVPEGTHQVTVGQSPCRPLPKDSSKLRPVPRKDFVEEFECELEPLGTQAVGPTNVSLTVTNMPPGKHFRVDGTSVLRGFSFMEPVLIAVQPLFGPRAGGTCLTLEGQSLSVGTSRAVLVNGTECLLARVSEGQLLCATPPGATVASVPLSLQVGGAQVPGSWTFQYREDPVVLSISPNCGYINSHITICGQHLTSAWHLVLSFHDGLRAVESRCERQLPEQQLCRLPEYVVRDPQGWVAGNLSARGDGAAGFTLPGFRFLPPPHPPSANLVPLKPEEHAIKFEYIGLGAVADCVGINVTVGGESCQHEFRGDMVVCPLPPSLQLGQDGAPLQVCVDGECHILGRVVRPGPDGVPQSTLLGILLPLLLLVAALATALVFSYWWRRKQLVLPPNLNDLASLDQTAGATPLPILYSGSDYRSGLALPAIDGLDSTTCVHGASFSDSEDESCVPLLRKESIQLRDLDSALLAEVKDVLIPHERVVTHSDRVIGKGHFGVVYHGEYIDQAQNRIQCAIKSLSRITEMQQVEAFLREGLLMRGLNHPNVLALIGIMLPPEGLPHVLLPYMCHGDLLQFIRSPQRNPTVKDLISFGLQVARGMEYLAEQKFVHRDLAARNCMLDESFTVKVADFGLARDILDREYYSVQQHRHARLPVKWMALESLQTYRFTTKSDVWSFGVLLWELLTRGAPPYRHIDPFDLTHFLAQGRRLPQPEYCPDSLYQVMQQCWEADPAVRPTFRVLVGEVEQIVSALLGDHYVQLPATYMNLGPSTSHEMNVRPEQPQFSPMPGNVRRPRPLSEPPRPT

## CN(C)C/C=C/C(=O)Nc1cccc(C(=O)Nc2ccc(Nc3nccc(-c4c(-c5ccccc5)nn5ccccc45)n3)cc2)c1
ABL2 (human)
  kinase still bound, per cent of control: 21%
ACVR1 (human)
  kinase still bound, per cent of control: 3.8%
AURKA (human)
  kinase still bound, per cent of control: 28%
CDC42BPG (human)
  Kd: 18 nM
  kinase still bound, per cent of control: 0.25%
CDK16 (human)
  kinase still bound, per cent of control: 100%
CDK17 (human)
  kinase still bound, per cent of control: 100%
CDK9 (human)
  kinase still bound, per cent of control: 100%
CLK1 (human)
  kinase still bound, per cent of control: 95%
CLK3 (human)
  kinase still bound, per cent of control: 100%
CSNK1E (human)
  kinase still bound, per cent of control: 0%
[1]
  kinase still bound, per cent of control: 0%
[2]
  kinase still bound, per cent of control: 76%
EPHB6 (human)
  kinase still bound, per cent of control: 9.4%
FLT1 (human)
  kinase still bound, per cent of control: 9.3%
IKBKE (human)
  kinase still bound, per cent of control: 95%
IRAK3 (human)
  kinase still bound, per cent of control: 64%
[3]
  kinase still bound, per cent of control: 89%
LATS2 (human)
  kinase still bound, per cent of control: 78%
MAP2K6 (human)
  kinase still bound, per cent of control: 56%
MAP3K11 (human)
  kinase still bound, per cent of control: 71%
MAP4K5 (human)
  kinase still bound, per cent of control: 27%
MAPK13 (human)
  kinase still bound, per cent of control: 100%
MERTK (human)
  kinase still bound, per cent of control: 49%
MST1R (human)
  kinase still bound, per cent of control: 100%
MYLK4 (human)
  kinase still bound, per cent of control: 100%
MYO3B (human)
  kinase still bound, per cent of control: 97%
NEK6 (human)
  kinase still bound, per cent of control: 100%
NEK7 (human)
  kinase still bound, per cent of control: 100%
NEK9 (human)
  kinase still bound, per cent of control: 100%
PAK4 (human)
  kinase still bound, per cent of control: 91%
PDGFRB (human)
  kinase still bound, per cent of control: 0.2%
PDPK1 (human)
  kinase still bound, per cent of control: 100%
[4]
  kinase still bound, per cent of control: 93%
PIP5K1C (human)
  kinase still bound, per cent of control: 87%
PLK2 (human)
  kinase still bound, per cent of control: 81%
PTK2B (human)
  kinase still bound, per cent of control: 85%
RPS6KA1 KD1 (human)
  kinase still bound, per cent of control: 100%
SIK2 (human)
  kinase still bound, per cent of control: 42%
STK38L (human)
  kinase still bound, per cent of control: 100%
STK4 (human)
  kinase still bound, per cent of control: 4.2%
TGFBR1 (human)
  kinase still bound, per cent of control: 12%
ULK3 (human)
  kinase still bound, per cent of control: 84%

## CN(C)C/C=C/C(=O)Nc1cccc(C(=O)Nc2ccc(Nc3nccc(/C(C#N)=C4\Nc5ccccc5S4)n3)cc2)c1
ABL2 (human)
  kinase still bound, per cent of control: 100%
ACVR1 (human)
  kinase still bound, per cent of control: 100%
AURKA (human)
  kinase still bound, per cent of control: 100%
CDC42BPG (human)
  kinase still bound, per cent of control: 88%
CDK16 (human)
  kinase still bound, per cent of control: 100%
CDK17 (human)
  kinase still bound, per cent of control: 100%
CDK9 (human)
  kinase still bound, per cent of control: 100%
CLK1 (human)
  kinase still bound, per cent of control: 42%
CLK3 (human)
  kinase still bound, per cent of control: 100%
CSNK1E (human)
  kinase still bound, per cent of control: 41%
[1]
  kinase still bound, per cent of control: 72%
[2]
  kinase still bound, per cent of control: 55%
EPHB6 (human)
  kinase still bound, per cent of control: 49%
FLT1 (human)
  kinase still bound, per cent of control: 32%
IKBKE (human)
  kinase still bound, per cent of control: 100%
IRAK3 (human)
  kinase still bound, per cent of control: 51%
[3]
  kinase still bound, per cent of control: 100%
LATS2 (human)
  kinase still bound, per cent of control: 100%
MAP2K6 (human)
  kinase still bound, per cent of control: 100%
MAP3K11 (human)
  kinase still bound, per cent of control: 100%
MAP4K5 (human)
  kinase still bound, per cent of control: 100%
MAPK13 (human)
  kinase still bound, per cent of control: 86%
MERTK (human)
  kinase still bound, per cent of control: 66%
MST1R (human)
  kinase still bound, per cent of control: 100%
MYLK4 (human)
  kinase still bound, per cent of control: 20%
MYO3B (human)
  kinase still bound, per cent of control: 100%
NEK6 (human)
  kinase still bound, per cent of control: 100%
NEK7 (human)
  kinase still bound, per cent of control: 100%
NEK9 (human)
  kinase still bound, per cent of control: 100%
PAK4 (human)
  kinase still bound, per cent of control: 100%
PDGFRB (human)
  kinase still bound, per cent of control: 35%
PDPK1 (human)
  kinase still bound, per cent of control: 100%
[4]
  kinase still bound, per cent of control: 100%
PIP5K1C (human)
  kinase still bound, per cent of control: 100%
PLK2 (human)
  kinase still bound, per cent of control: 65%
PTK2B (human)
  kinase still bound, per cent of control: 100%
RPS6KA1 KD1 (human)
  kinase still bound, per cent of control: 100%
SIK2 (human)
  kinase still bound, per cent of control: 100%
STK38L (human)
  kinase still bound, per cent of control: 100%
STK4 (human)
  kinase still bound, per cent of control: 100%
TGFBR1 (human)
  kinase still bound, per cent of control: 97%
ULK3 (human)
  kinase still bound, per cent of control: 100%

## Cc1cc(NC(=O)c2cccc(NC(=O)/C=C/CN(C)C)c2)ccc1Nc1nccc(-c2cccnc2)n1
ABL2 (human)
  kinase still bound, per cent of control: 97%
ACVR1 (human)
  kinase still bound, per cent of control: 100%
AURKA (human)
  kinase still bound, per cent of control: 100%
CDC42BPG (human)
  kinase still bound, per cent of control: 86%
CDK16 (human)
  kinase still bound, per cent of control: 100%
CDK17 (human)
  kinase still bound, per cent of control: 100%
CDK9 (human)
  kinase still bound, per cent of control: 100%
CLK1 (human)
  kinase still bound, per cent of control: 100%
CLK3 (human)
  kinase still bound, per cent of control: 100%
CSNK1E (human)
  kinase still bound, per cent of control: 70%
[1]
  kinase still bound, per cent of control: 90%
[2]
  kinase still bound, per cent of control: 100%
EPHB6 (human)
  kinase still bound, per cent of control: 71%
FLT1 (human)
  kinase still bound, per cent of control: 100%
IKBKE (human)
  kinase still bound, per cent of control: 91%
IRAK3 (human)
  kinase still bound, per cent of control: 85%
[3]
  kinase still bound, per cent of control: 98%
LATS2 (human)
  kinase still bound, per cent of control: 74%
MAP2K6 (human)
  kinase still bound, per cent of control: 95%
MAP3K11 (human)
  kinase still bound, per cent of control: 91%
MAP4K5 (human)
  kinase still bound, per cent of control: 100%
MAPK13 (human)
  kinase still bound, per cent of control: 100%
MERTK (human)
  kinase still bound, per cent of control: 100%
MST1R (human)
  kinase still bound, per cent of control: 100%
MYLK4 (human)
  Kd: 4000 nM
  kinase still bound, per cent of control: 9.6%
MYO3B (human)
  kinase still bound, per cent of control: 89%
NEK6 (human)
  kinase still bound, per cent of control: 100%
NEK7 (human)
  kinase still bound, per cent of control: 100%
NEK9 (human)
  kinase still bound, per cent of control: 100%
PAK4 (human)
  kinase still bound, per cent of control: 100%
PDGFRB (human)
  kinase still bound, per cent of control: 4.7%
PDPK1 (human)
  kinase still bound, per cent of control: 61%
[4]
  kinase still bound, per cent of control: 96%
PIP5K1C (human)
  kinase still bound, per cent of control: 93%
PLK2 (human)
  kinase still bound, per cent of control: 79%
PTK2B (human)
  kinase still bound, per cent of control: 87%
RPS6KA1 KD1 (human)
  kinase still bound, per cent of control: 99%
SIK2 (human)
  kinase still bound, per cent of control: 88%
STK38L (human)
  kinase still bound, per cent of control: 100%
STK4 (human)
  kinase still bound, per cent of control: 100%
TGFBR1 (human)
  kinase still bound, per cent of control: 89%
ULK3 (human)
  kinase still bound, per cent of control: 40%
